Measurements reported in US8232297B2, “Sulphonylpyrroles as inhibitors of HDACs novel sulphonylpyrroles” (4SC AG, priority 2005, dated 2012).
pIC50: −log10 of the molar value.

Assays:
[1] = tested on: HeLa cervical carcinoma cells; experiment: Cellular cytotoxicity assay (Alamar Blue), HeLa; assay type: cell-based; conditions: Homo sapiens, 72 h, printed only as range over the group of listed compounds
Experimental: The anti-proliferative activity of the histone deacetylase inhibitory compounds as described herein, was evaluated using the following cell lines: HeLa and HeLa-KB (cervical carcinoma), H460 (non small cell lung cancer), A549 (non-small cell lung cancer), MCF7 (breast carcinoma), MCF10A (normal, non tumorigenic breast epithelial), MDA-MB468 (breast carcinoma), MDA-MB435 (breast carcinoma), MDA-MB231 (breast carcinoma), SKBR-3 (breast carcinoma), SKOV-3 (ovarial carcinoma), A-2780 (ovarial carcinoma), RKO (colon carcinoma), HCT-15 (colon carcinoma), HCT-116 (colon carcinoma), PC3 (prostate carcinoma), BPH1 (benign prostate hyperplasia), AsPC1 (pancreatic carcinoma), Cal27 (tongue carcinoma), A-431 (vulva carcinoma), Hec1A (endometrial carcinoma), Saos-2 (osteosarcoma), U87MG (glioblastoma), WM266-4 (melanoma), K562 (chronic myeloid carcinoma), EOL1 (acute hypereosinophilic myeloid leukemia), CCRF-CEM and CCRF-CEM VCR1000 (acute lymphoblastic leukemia sensitive and resistant towards Vincristine). For quantification of cellular proliferation/living cells the Alamar Blue (Resazurin) cell viability assay was applied (O'Brien et al. Eur J Biochem 267, 5421-5426, 2000). […] After 4 hours incubation at 37° C. the fluorescence was measured at an extinction of 544 nm and an emission of 590 nm. […] Viabilities were expressed as % values. […]

[2] = tested on: A549 cell line; experiment: Combination experiment with Trail; assay type: cell-based; conditions: example at about its IC50 with Trail, 4 h pretreatment, 72 h total
Experimental: A549 non-small cell lung cancer, MDA-MB468 breast cancer and […] colorectal cancer cell lines were pretreated with the examples for 4 h before adding the chemotherapeutic agents or Trail and further incubation for 72 h total. The IC50 values of these combinations were determined from concentration-effect curves and compared to IC50 values of cell treated with the anti-cancer agent only.

[3] = tested on: RKO proliferating colon carcinoma cells; experiment: Cell-cycle dependent cytotoxicity, RKO exop21 system, proliferating; assay type: cell-based; conditions: 72 h, given only as range over the listed compounds
Experimental: (§1) For determination of cell-cycle dependent cytotoxicity, the RKO exop21 cell system was applied (Schmidt et al. Oncogene 19: 2423-2429, 2000). Briefly, RKO cells with/without p21^waf1 expression (2×10^4 cells/well induced, 6×10^3 cells/well not induced) were treated with the examples for 72 h and metabolic activity quantified as described before. The expression of p21^waf1 was induced by treatment with Pronasterone A, causing a complete proliferation arrest of RKO cells in the G1 and G2 phases of the cell division cycle.

[4] = tested on: RKO arrested (p21waf1 expressed) colon carcinoma cells; experiment: Cell-cycle dependent cytotoxicity, RKO exop21 system, arrested; assay type: cell-based; conditions: 72 h, p21waf1 induced, given only as range over the listed compounds
Experimental: as §1

Cc1ccc(S(=O)(=O)n2ccc(C=CC(=O)NO)c2)cc1 [Compound 1, (E)-N-Hydroxy-3-[1-(toluene-4-sulfonyl)-1-H-pyrrol-3-yl]-acrylamide]
pIC50 [1]: 4.67 to 6.10

Nc1ccccc1NC(=O)/C=C/c1ccn(S(=O)(=O)c2ccc(-c3ccncc3)cc2)c1 [Compound 20, (E)-N-(2-Amino-phenyl)-3-[1-(4-pyridin-4-yl-benzenesulfonyl)-1H-pyrrol-3-yl]-acrylamide]
melting point: 244.2 to 246.5 °C

O=C(/C=C/c1ccn(S(=O)(=O)c2ccc(-c3cn[nH]c3)cc2)c1)NO [Compound 19, (E)-N-Hydroxy-3-{1-[4-(1H-pyrazol-4-yl)-benzenesulfonyl]-1H-pyrrol-3-yl}-acrylamide]
melting point: 203.8 to 211.9 °C

NCc1ccc(S(=O)(=O)n2ccc(/C=C/C(=O)NO)c2)cc1 [Compound 17, (E)-3-[1-(4-Aminomethyl-benzenesulfonyl)-1H-pyrrol-3-yl]-N-hydroxy-acrylamide]
melting point: 227 to 228.6 °C

O=C(/C=C/c1ccn(S(=O)(=O)c2ccc(CN3CCOCC3)cc2)c1)NO [Compound 27, (E)-N-Hydroxy-3-[1-(4-morpholin-4-ylmethyl-benzenesulfonyl)-1H-pyrrol-3-yl]-acrylamide]
melting point: 168 to 170 °C

O=C(/C=C/c1ccn(S(=O)(=O)c2ccc(-c3ccccn3)s2)c1)NO [Compound 24, (E)-N-Hydroxy-3-[1-(5-pyridin-2-yl-thiophene-2-sulfonyl)-1H-pyrrol-3-yl]-acrylamide]
Effect of combination with Trail [2]: synergism is highly likely
pIC50 [3]: 5.29 to 6.82
pIC50 [4]: 4.82 to 6.35

Nc1ccccc1NC(=O)/C=C/c1ccn(S(=O)(=O)c2ccc(-c3ccccn3)s2)c1 [Compound 26, (E)-N-(2-Amino-phenyl)-3-[1-(5-pyridin-2-yl-thiophene-2-sulfonyl)-1H-pyrrol-3-yl]-acrylamide]
melting point: 171.3 to 174.7 °C

O=C(/C=C/c1ccn(S(=O)(=O)c2ccc(-c3ccncc3)cc2)c1)NO [Compound 18, (E)-N-Hydroxy-3-[1-(4-pyridin-4-yl-benzenesulfonyl)-1H-pyrrol-3-yl]-acrylamide]
melting point: 219.3 to 221.4 °C

O=C(/C=C/c1ccn(S(=O)(=O)c2cccc(-c3ccccc3)c2)c1)NO [Compound 23, (E)-3-[1-(Biphenyl-3-sulfonyl)-1H-pyrrol-3-yl]-N-hydroxy-acrylamide]
melting point: 114 to 159.4 °C

CN(C)Cc1ccc(S(=O)(=O)n2ccc(/C=C/C(=O)NO)c2)cc1 [Compound 10, (E)-3-[1-(4-Dimethylaminomethyl-benzenesulfonyl)-1H-pyrrol-3-yl]-N-hydroxy-acrylamide]
Effect of combination with Trail [2]: synergism is highly likely
pIC50 [3]: 5.29 to 6.82
pIC50 [4]: 4.82 to 6.35

Nc1ccccc1NC(=O)/C=C/c1ccn(S(=O)(=O)c2ccc(-c3cccnc3)cc2)c1 [Compound 21, (E)-N-(2-Amino-phenyl)-3-[1-(4-pyridin-3-yl-benzenesulfonyl)-1H-pyrrol-3-yl]-acrylamide]
melting point: 199.7 to 202.3 °C

O=C(/C=C/c1ccn(S(=O)(=O)c2ccc(-c3ccccc3)cc2)c1)NO [Compound 3, (E)-3-[1-(Biphenyl-4-sulfonyl)-1H-pyrrol-3-yl]-N-hydroxy-acrylamide]
Effect of combination with Trail [2]: synergism is highly likely
pIC50 [3]: 5.29 to 6.82
pIC50 [4]: 4.82 to 6.35

CN(CCc1cc2ccccc2[nH]1)Cc1ccc(S(=O)(=O)n2ccc(/C=C/C(=O)NO)c2)cc1 [Compound 9, (E)-N-Hydroxy-3-(1-[4-(([2-(1H-indol-2-yl)-ethyl]-methyl-amino)-methyl)-benzenesulfonyl]-1H-pyrrol-3-yl)-acrylamide]
Effect of combination with Trail [2]: synergism is highly likely
pIC50 [3]: 5.29 to 6.82
pIC50 [4]: 4.82 to 6.35

Nc1ccccc1NC(=O)/C=C/c1ccn(S(=O)(=O)c2ccc(-c3cn[nH]c3)cc2)c1 [Compound 22, (E)-N-(2-Amino-phenyl)-3-{1-[4-(1H-pyrazol-4-yl)-benzenesulfonyl]-1H-pyrrol-3-yl}-acrylamide]
melting point: 232.3 to 240.9 °C

O=C(/C=C/c1ccn(S(=O)(=O)c2ccc(-n3cccn3)cc2)c1)NO [Compound 25, (E)-N-Hydroxy-3-[1-(4-pyrazol-1-yl-benzenesulfonyl)-1H-pyrrol-3-yl]-acrylamide]
melting point: 160.7 to 166.6 °C
